Columns and labels:
Actinomycetes israelii = assay: Patient infected with Actinomycetes israelii; type: in vivo; conditions: 1 mg/kg four times per day i.v.
Excerpt: A patient infected with Actinomycetes israelii has a low-grade fever, non-productive cough, and occasional hemoptysis.

mycoplasma = conditions: 250 mg three times a day
oral thrush = assay: Patients with oral thrush; type: in vivo; conditions: 2 cc of 50 mM, swish and spit, three times/day
Description: An immunocompromised person who is status-post recent chemotherapy develops oral thrush.
A person with leukemia develops oral thrush and is given 2 cc of 50 mM S-nitrosoglutathione, swish and spit, three times/day.
An immunocompromised person with HIV and a low CD4 count develops oral thrush. They are given 5 cc of a solution of 10 mM nitrate.

[1] = system: mixed flora and gram-negativerods; assay: Diabetic patient with infected skin ulcer; type: in vivo; conditions: topical cream with S-nitrosoglutathione, oxidized glutathione and dinitrophenacyl glutathione
Excerpt: A patient with diabetes develops a skin ulcer on the lower aspect of their left leg. Cultures grow mixed flora and gram-negativerods. A topical cream is applied that contains S-nitrosoglutathione, oxidized glutathione and the glutathione S-conjugate dinitrophenacyl glutathione.

trypanosomes = assay: Patient with trypanosome infection; type: in vivo; conditions: L-buthionine-S-sulfoximine 3 mmol/kg p.o. every 4 hours and S-nitrosoglutathione iv 10 mg/kg every 8 hours, one week
Description: A person presents with high fever, moderate lymphadenopathy and reports that they have lost 40 pounds in the last month, two months after returning from a safari in sub-Saharan Africa. On questioning, the patient reports having developed during the safari an ulcer on their forearm two days following a bite by a fly. […] The patient is hospitalized and given L-buthionine-S-sulfoximine at a dose of 3 mmol/kg p.o. every 4 hours for one week. In addition, the patient receives S-nitrosoglutathione iv at a dose of 10 mg/kg every 8 hours for one week.

athlete's foot = assay: Patients with athlete's foot; type: in vivo; conditions: 50 mM added to miconazole cream
Description: A runner develops athlete's foot. […] They substitute a cream containing the same ingredients, with the exception that S-nitroso-N-acetyl cysteine has been added so as to be present at a concentration of 50 mM.
A marathon runner develops athlete's foot. They treat themself with a topical mixture of inorganic nitrite, acetic acid and thiol in a cream base.

rat kidney gamma-GCS = target: T1, rat kidney gamma-GCS (Rattus norvegicus, UniProt P19468); assay: Inhibition of mammalian gamma-GCS, protocol similar to E. coli enzyme; type: biochemical
T1 construct: highly purified rat kidney gamma-GCS; from tissue; host or cells: rat kidney
T1 sequence (P19468 whole entry): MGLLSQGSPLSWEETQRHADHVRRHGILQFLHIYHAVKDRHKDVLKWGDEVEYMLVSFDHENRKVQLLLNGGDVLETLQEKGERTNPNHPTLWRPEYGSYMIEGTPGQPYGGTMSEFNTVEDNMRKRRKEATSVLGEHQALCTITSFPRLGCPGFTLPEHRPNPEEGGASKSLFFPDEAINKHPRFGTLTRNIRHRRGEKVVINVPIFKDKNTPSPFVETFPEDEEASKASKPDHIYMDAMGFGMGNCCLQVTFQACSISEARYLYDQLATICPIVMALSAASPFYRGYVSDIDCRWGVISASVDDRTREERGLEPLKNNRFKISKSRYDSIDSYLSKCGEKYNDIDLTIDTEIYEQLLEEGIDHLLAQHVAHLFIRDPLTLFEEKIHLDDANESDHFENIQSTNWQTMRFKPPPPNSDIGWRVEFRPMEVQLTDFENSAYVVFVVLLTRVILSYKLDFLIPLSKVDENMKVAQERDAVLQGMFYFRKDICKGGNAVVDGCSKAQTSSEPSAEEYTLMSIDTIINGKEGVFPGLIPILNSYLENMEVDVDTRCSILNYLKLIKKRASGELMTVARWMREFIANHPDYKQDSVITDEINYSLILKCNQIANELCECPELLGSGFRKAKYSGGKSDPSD
T1 sequence (P48508 whole entry partner): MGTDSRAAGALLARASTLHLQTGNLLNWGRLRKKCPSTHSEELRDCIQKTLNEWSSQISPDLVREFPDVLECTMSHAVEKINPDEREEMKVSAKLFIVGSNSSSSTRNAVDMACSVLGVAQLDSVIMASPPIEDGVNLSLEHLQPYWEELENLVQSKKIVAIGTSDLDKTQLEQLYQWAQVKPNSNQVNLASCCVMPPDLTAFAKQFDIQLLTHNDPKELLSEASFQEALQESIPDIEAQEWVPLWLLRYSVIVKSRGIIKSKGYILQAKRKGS

E. coli [2] = conditions: chloramphenicol alone; cited from earlier work
S. typhimurium = conditions: J. Gen. Microbiol. 72, 291–301 (1972); cited from earlier work
E. coli [3] = assay: Patient with E. coli caused gastroenteritis with bloody diarrhea; type: in vivo
Description: A patient with E. coli caused gastroenteritis with bloody diarrhea is administered α-ethyl-L-buthionine-S-sulfoximine (hereinafter α-ethyl BSO) orally at a dose of 10 mmol/kg body weight four times a day.
A patient with E. coli caused gastroenteritis and bloody diarrhea is administered α-ethyl BSO orally at a dose of 10 mmol/kg body weight four times a day. In addition, the patient is given chloramphenicol orally at a dose of 12.5 mg/kg four times a day. Bloody diarrhea resolved in 36 hours.

[4] = target: T2, E. coli gamma-glutamylcysteine synthetase (Escherichia coli, UniProt P0A6W9); assay: Inactivation of E. coli gamma-GCS by homocysteine sulfoximines (preincubation with ATP, residual activity by coupled PK/LDH assay); type: biochemical; conditions: on an active isomer basis
T2 construct: made in house
T2 sequence (P0A6W9 whole entry): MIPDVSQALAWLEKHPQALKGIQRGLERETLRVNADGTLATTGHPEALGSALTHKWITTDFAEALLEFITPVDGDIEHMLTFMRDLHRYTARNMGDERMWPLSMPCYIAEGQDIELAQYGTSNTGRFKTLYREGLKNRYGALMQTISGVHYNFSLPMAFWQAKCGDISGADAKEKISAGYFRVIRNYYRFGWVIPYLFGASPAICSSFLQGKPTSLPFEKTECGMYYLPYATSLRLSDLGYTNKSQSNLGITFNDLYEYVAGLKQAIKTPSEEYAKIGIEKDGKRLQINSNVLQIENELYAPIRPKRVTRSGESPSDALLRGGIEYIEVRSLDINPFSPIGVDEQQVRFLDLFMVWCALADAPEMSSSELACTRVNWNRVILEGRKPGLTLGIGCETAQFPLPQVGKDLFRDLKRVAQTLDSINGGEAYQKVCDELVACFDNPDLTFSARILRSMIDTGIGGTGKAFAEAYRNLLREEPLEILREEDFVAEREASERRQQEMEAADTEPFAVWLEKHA
Description: E. coli gamma-GCS was isolated from bacterial cells engineered to overexpress the enzyme; the isolation procedure was similar to that used previously to isolate mammalian gamma-GCS. […] The enzyme was assayed in reaction mixtures (final volume=1.0 ml) containing: 150 mM Tris·HCl, pH 8.2, 100 mM KCl, 25 mM MgCl2, 7.5 mM ATP, 7.5 mM phosphoenolpyruvate, 0.3 mM EDTA, 10 mM L-glutamate, 10 mM L-α-aminobutyrate (an L-cysteine analog), 0.3 mM NADH, 5 IU pyruvate kinase, and 5 IU lactate dehydrogenase. Reaction was initiated by adding gamma-GCS; in control studies, L-α-aminobutyrate was omitted from the reaction mixture. In this assay, pyruvate kinase (PK) and lactate dehydrogenase (LDH) are added in excess to detect formation of ADP, one of the products of the gamma-GCS reaction. The relevant enzyme reactions are shown as equations 1–3 below. Oxidation of NADH to NAD^+ is followed and quantitated spectrophotometrically at 340 nm (1 μmol oxidation gives ΔOD=−6.2) and is directly proportional to product formation by gamma-GCS. [drawing 2]
Inhibition by homocysteine sulfoximines was carried out by preincubating the E. coli gamma-GCS with potential inhibitors in the presence of ATP and then removing aliquots of that mixture at specific times and assaying for residual activity using the assay procedure described above. The preincubation reaction mixtures contained (final volume=400 μl) the following: 210 mM Tris·HCl, pH 8.2, 142 mM KCl, 36 mM MgCl2, 10 mM ATP, 0.4 mM EDTA, various amounts of sulfoximine, and gamma-GCS. At intervals, 50 μl aliquots were removed and added to 1.0 ml assay reaction mixtures to determine residual activity spectrophotometrically. Results of a study indicate that E. coli gamma-GCS loses about 27% of its activity over 30 minutes in the absence of added inhibitors; this loss of activity represents an inherent instability in the enzyme when incubated under these reaction conditions in this particular experiment. […]

rickettsia = type: in vivo; conditions: 4 mmol/kg four times a day p.o. with chloramphenicol 12.5 mg four times a day p.o.
E. coli [5] = assay: Patients with E. coli septicemia; type: in vivo
Description: A person with fever, mild hypotension, and moderate hematuria has blood and urine cultures that are positive for E. coli. They are given a diagnosis of E. coli septicemia and urinary tract infection. […]
A person with E. coli sepsis presents feeling nauseated and gravely ill. However, their blood pressure is stable. They receive a standard regimen of IV antibiotics, including ampicillin and gentamicin as well as the siderophore ferrioxamine B at a dose of 10 mg/kg.
A person with E. coli sepsis presents with a blood pressure of 80/50 mm Hg. Broad spectrum antibiotics are initiated including ampicillin and gentamicin. […] The patient then receives an intravenous dose of nitrosated chloramphenicol, 12.5 mg four times/day IV together with methylene blue IV at a dose of 5 mg/kg as well as fluid support.

Chlamydia trachomatous = assay: Patients with Chlamydia cervicitis and vaginitis; type: in vivo; conditions: α-ethyl BSO 4 mmol/kg and nitrate ester of chloramphenicol 12.5 mg/kg, each four times a day p.o.
Excerpt: A person with a history of multiple sexual partners and recurrent urinary tract infections presents with cervicitis and vaginitis of four days duration. The patient complains of pain and vaginal discharge.

Streptomycetes = assay: Immunocompromised patient with Streptomycetes lesion; type: in vivo; conditions: 4 mmol/kg three times a day p.o. with trimethoprim and sulfamethoxazole, one month
Description: An immunocompromised patient recovering from bone marrow transplantation develops a lump in their cheek at a place previously scratched by a garden implement. A culture obtained from the lump is positive for Streptomycetes. The patient is given DL-α-amino-δ-butylthio valeric acid-SR-sulfoximine at a dose of 4 mmol/kg body weight three times a day p.o. The patient is also given trimethoprim (160 mg twice a day) and sulfamethoxazole (800 mg twice a day) for one month.

[6] = system: metastatic malignant melanoma; assay: Patient with metastatic malignant melanoma; type: in vivo; conditions: L-buthionine-S-sulfoximine 2 mmol/kg p.o. every 4 hours and hydroxyurea 10 mg/kg p.o., one week
Description: A person […] and a history of surgery five years previously to remove malignant melanotic nevi from their upper back and chest is found to have blood in their stool on routine physical examination. […] The patient is administered L-buthionine-S-sulfoximine (2 mmol/kg) p.o. every 4 hours for one week and is given 10 mg/kg of hydroxyurea p.o. 1 hour after every third dose of L-buthionine-S-sulfoximine. […] The patient shown no further evidence of metastases during a six month follow-up.

Q: Which clinical outcome (Actinomycetes israelii) does the source give for serinyl-S-nitrosocysteinyl-gluatamine here?
A: symptoms resolve over three weeks

Q: For `CC[C@H]1OC(=O)[C@H](C)[C@@H](O[C@H]2C[C@@](C)(OC)[C@@H](O)[C@H](C)O2)[C@H](C)[C@@H](O[C@@H]2O[C@H](C)C[C@H](N(C)C)[C@H]2O)[C@](C)(O)C[C@@H](C)C(=O)[C@H](C)[C@@H](O)[C@]1(C)O` [erythromycin], which clinical outcome (mycoplasma) is on record?
A: symptoms linger

Q: Which clinical outcome (oral thrush) does the source give for `N[C@@H](CCC(=O)N[C@@H](CSN=O)C(=O)NCC(=O)O)C(=O)O` [S-nitrosoglutathione] here?
A: much improved in three days

Q: And the clinical outcome [1]?
A: culture of the ulcer becomes sterile over three days

Q: And the clinical outcome (trypanosomes)?
A: blood smear is free of trypanosomes

Q: With `CC(=O)N[C@@H](CSN=O)C(=O)O` [S-nitroso-N-acetyl cysteine] as the compound, how does the clinical outcome (athlete's foot) read?
A: symptoms improve over seven days

Q: Which results are given for `CCCCS(=N)(=O)CCC(N)(CC)C(=O)O` (racemic) [α-ethyl-DL-buthionine-SR-sulfoximine, α-Ethyl-D,L-buthionine-R,S-sulfoximine]?
A: effectiveness as inhibitor relative to L-buthionine-S-sulfoximine (rat kidney gamma-GCS; highly purified rat kidney enzyme, DL,SR mixture): 0.025%; melting point: 203 to 205 °C

Q: For `O=C(N[C@H](CO)[C@H](O)c1ccc([N+](=O)[O-])cc1)C(Cl)Cl` [Chloramphenicol, chloramphenicol], which “usual time to effect” value (E. coli [2]) is on record?
A: normally has effect in three days

Q: Which bacterial growth (S. typhimurium) does the source give for `c1nc[nH]n1` [1,2,4-trazole] here?
A: inhibiting the growth of S. typhimurium

Q: For `CCCCS(=N)(=O)CCC(N)(CC)C(=O)O` [α-ethyl-L-buthionine-S-sulfoximine], which “time to resolution of bloody diarrhea” value (E. coli [3]; 10 mmol/kg orally four times a day plus chloramphenicol 12.5 mg/kg orally four times a day) is on record?
A: 36 h

Q: And the clinical outcome (E. coli [3]; orally 10 mmol/kg four times a day)?
A: Bloody diarrhea resolved over four days

Q: What about the “effectiveness as inhibitor relative to L-S-BSO” value [4] of the same compound?
A: about 20%

Q: And the “time until patient becomes well” value (rickettsia)?
A: 10 days

Q: What about the “inhibitory activity relative to L-buthionine-S-sulfoximine” value (rat kidney gamma-GCS; expressed on the basis of the active isomer) of the same compound?
A: about 0.1%

Q: What about the clinical outcome (E. coli [5]; resistant to conventional antibiotics, 4 mmol/kg four times a day p.o. plus hyperbaric 100% oxygen, ampicillin and gentamicin continued) of the same compound?
A: symptoms resolve within four days

Q: And the clinical outcome (E. coli [5]; septicemia and urinary tract infection, α-ethyl BSO 4 mmol/kg four times a day p.o., S-nitroso-gamma-methyl-L-homocysteine 50 μg/kg i.v., gentamicin)?
A: symptoms resolve and blood and urine cultures are negative for E. coli after two weeks

Q: And the “time to resolution of infection” value (Chlamydia trachomatous)?
A: 10 days

Q: Which clinical outcome (Streptomycetes) does the source give for `CCCCS(=N)(=O)CCCC(N)C(=O)O` (racemic) [DL-α-amino-δ-butylthio valeric acid-SR-sulfoximine] here?
A: lesion in patient's cheek resolves completely

Q: Which “reduction in size of metastatic tumor” value [6] does the source give for `NC(=O)NO` [hydroxyurea] here?
A: 30%
